Laboratory results from US20120059029A1 (Elan Pharmaceuticals, Inc., priority 2010, published 2012).
pEC50: −log10 of the molar value.

Assays:
Type in all cases: cell-based
α4β1 [1] = target: T1, α4β1 (Homo sapiens, UniProt P05556+P13612); assay: α4β1-dependent Jurkat cell adhesion to human fibronectin; details: TS2/16-activated α4β1, anti-α5 antibody present; read-out: EC50, Jurkat adhesion to FN
T1 construct: Jurkat™ lymphoma T cells express high levels of α4β1 integrin; endogenous in cells; host or cells: Jurkat cells
T1 sequence (P13612 34-1032): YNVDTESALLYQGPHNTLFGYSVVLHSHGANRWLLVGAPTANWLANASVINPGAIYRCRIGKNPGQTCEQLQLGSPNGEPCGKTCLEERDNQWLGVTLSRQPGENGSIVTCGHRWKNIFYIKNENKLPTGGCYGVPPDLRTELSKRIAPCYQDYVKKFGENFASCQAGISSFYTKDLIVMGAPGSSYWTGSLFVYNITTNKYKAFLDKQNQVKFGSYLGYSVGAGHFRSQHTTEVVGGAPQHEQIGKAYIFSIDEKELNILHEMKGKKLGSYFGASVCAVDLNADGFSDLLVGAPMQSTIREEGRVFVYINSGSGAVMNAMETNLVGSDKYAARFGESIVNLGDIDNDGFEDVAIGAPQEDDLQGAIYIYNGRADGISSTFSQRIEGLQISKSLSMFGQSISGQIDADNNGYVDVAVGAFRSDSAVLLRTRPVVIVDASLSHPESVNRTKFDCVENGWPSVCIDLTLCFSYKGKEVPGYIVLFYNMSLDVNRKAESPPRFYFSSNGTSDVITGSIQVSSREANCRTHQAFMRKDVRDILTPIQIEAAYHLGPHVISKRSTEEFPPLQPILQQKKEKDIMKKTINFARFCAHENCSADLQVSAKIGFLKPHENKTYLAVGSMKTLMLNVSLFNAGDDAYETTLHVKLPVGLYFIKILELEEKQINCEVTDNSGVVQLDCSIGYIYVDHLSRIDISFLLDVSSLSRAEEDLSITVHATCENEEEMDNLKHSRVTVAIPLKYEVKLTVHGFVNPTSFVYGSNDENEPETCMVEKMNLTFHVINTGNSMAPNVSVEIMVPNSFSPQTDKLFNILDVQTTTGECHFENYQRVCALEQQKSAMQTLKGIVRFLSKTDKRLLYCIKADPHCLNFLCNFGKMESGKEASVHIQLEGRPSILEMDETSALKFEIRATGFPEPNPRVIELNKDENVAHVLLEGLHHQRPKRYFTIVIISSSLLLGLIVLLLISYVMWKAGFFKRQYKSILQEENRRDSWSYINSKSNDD
T1 sequence (P05556 21-798): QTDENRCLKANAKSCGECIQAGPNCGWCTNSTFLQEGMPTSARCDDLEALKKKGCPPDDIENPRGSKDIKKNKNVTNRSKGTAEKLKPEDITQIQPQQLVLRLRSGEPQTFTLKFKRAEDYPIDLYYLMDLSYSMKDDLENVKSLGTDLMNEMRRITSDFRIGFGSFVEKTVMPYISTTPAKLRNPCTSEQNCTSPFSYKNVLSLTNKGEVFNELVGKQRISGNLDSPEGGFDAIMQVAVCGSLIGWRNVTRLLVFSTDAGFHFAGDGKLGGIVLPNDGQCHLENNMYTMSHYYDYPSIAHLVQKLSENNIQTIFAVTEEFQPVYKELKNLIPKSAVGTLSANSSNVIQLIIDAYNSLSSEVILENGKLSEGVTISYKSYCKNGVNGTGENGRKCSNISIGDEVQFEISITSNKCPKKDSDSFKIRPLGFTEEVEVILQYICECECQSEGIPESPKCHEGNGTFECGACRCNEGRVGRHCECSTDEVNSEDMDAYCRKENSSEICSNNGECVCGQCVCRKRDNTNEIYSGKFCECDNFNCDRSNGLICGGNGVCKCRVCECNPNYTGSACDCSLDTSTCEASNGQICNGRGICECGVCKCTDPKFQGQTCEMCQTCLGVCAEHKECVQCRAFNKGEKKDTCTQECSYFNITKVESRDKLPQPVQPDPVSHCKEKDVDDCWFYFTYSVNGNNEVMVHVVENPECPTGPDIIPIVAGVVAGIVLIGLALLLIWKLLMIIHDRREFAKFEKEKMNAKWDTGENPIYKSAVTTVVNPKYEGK
Procedure: Jurkat™ cells adhere to fibronectin (FN) in an […] fashion.
5 μg/mL of an inhibitory antibody against α5 integrin (BD Pharmingen, Franklin Lakes, N.J.) is added to the buffer to prevent α5-dependent adhesion to FN.

[2] = target: T2, activated α4β1 on Jurkat cells (Homo sapiens, UniProt P05556+P13612); assay: α4β1-FN capture assay in human serum (Jurkat cells, FACS); details: 50% human serum
T2 construct: Jurkat™ lymphoma T cells express high levels of α4β1 integrin; endogenous in cells; host or cells: Jurkat cells
T2 sequence (P13612 34-1032): as the sequence (P13612 34-1032) above
T2 sequence (P05556 21-798): as the sequence (P05556 21-798) above
Procedure: The α4β1 receptors on Jurkat™ cell surfaces can capture, in solution, the endogenous FN present in serum.
An equal volume of assay buffer containing 50% human serum, the antibody 15/7 (2×, 20 μg/ml) and MnCl2 (2×, 3 mM) was then added to each well. These reagents served as α4 integrin activating agents, allowing the receptor to capture FN from the serum. The plate was then incubated for another 30 minutes at RT.

α4β1 [3] = target: T1, α4β1; assay: α4β1-dependent Jurkat adhesion to rs-hu-VCAM-1; details: read-out: EC50, adhesion of Jurkat cells to human VCAM-1
From the text: Jurkat™ lymphoma T cells express high levels of α4β1 integrin and strongly adhere to VCAM-1 in an α4 integrin-dependent fashion.

CC1(C)SCN(S(=O)(=O)c2cccnc2)[C@@H]1C(=O)N[C@@H](Cc1ccc(-n2c(=O)[nH]c3cccnc32)cc1)C(=O)O
pEC50 (α4β1 [1]): 10.00 | fold less potent than Formula (I), FN capture [2]: 2.6 fold | pEC50 (α4β1 [3]): 7.94
